From patent US10160729B2, “Hsp70 modulators and methods for making and using the same” (Memorial Sloan Kettering Cancer Center, priority 2014, dated 2018)

test system: diffuse large B-cell lymphoma (DLBCL) cells; experiment: Growth inhibition (CellTiter-Glo) in DLBCL cells, including cells with induced resistance to PU-H71; type: cell-based, human; conditions: FIG. 1B; DLBCL cells with induced resistance to Hsp90 inhibitor PU-H71
Source text: (§1) Cell lines: MDA-MB-468 cells were obtained from the American Type Culture Collection. DLBCL cells were described in Cerchietti L C, et al. BCL6 repression of EP300 in human diffuse large B cell lymphoma cells provides a basis for rational combinatorial therapy. J Clin Invest. Dec. 1, 2010; 120(12): 4569-4582; and Cerchietti L C, et al. A purine scaffold Hsp90 inhibitor destabilizes BCL-6 and has specific antitumor activity in BCL-6-dependent B cell lymphomas. Nat Med. 2009 December; 15(12):1369-76. MDA-MB-468 cells were grown in DME/F12 with 10% FBS and 1% penicillin and streptomycin. OCI-LY1R cells were developed by continuous incubation of OCI-LY1 cells with suboptimal concentrations of PU-H71 (depicted below) with subsequent selection of resistant clones. OCI-LY1, OCI-LY1R and OCI-LY7 cells were cultured in IMDM supplemented with 20% FBS, 1% glutamax and 1% penicillin and streptomycin. OCI-LY3, FARAGE, HBL1, Karpas422, MD901, U2932, SU-DHL4, SU-DHL6, RCK8 and TMD8 cells were grown in RPMI with 10% FBS, 1% glutamax and 1% penicillin and streptomycin.
Growth inhibition: 5,000 cells per well were plated in black 96-well microtiter plates and treated next day with indicated compounds at 1/2 serial dilutions. The plate was incubated for 72h after which growth was measured using the CellTiter-Glo Luminescent Cell Viability Assay (Promega) according to manufacture's instructions. The percentage cell growth inhibition was calculated by comparing luminescence readings obtained from treated versus control cells, accounting for initial cell population. The luminescence signal in each well was measured using the Analyst GT microplate reader (Molecular Devices).

| SMILES | Activity in DLBCL cells with induced resistance to PU-H71 |
| --- | --- |
| CN1CCN(c2ncc(Sc3ccc(N)nc3)c(OCc3ccccc3)n2)CC1 [compound 32, 5-((4-(Benzyloxy)-2-(4-methylpiperazin-1-yl)pyrimidin-5-yl)thio)pyridin-2-amine] | retains activity |

same assay, conditions: FIG. 1C; PU-H71-sensitive versus compound 32-sensitive DLBCL lines

| SMILES | Spectrum of sensitive DLBCLs |
| --- | --- |
| CN1CCN(c2ncc(Sc3ccc(N)nc3)c(OCc3ccccc3)n2)CC1 [compound 32, 5-((4-(Benzyloxy)-2-(4-methylpiperazin-1-yl)pyrimidin-5-yl)thio)pyridin-2-amine] | does not overlap |
| CC(C)NCCCn1c(Sc2cc3c(cc2I)OCO3)nc2c(N)ncnc21 [PU-H71, reference compound] | does not overlap |

test system: MDA-MB-468 triple negative breast cancer cells; experiment: Western blot of anti-apoptotic protein complexes; type: cell-based; conditions: FIG. 1A, MDA-MB-468 cells, 24 h
Source text: as §1
Western blot: Cells were plated and treated next day with indicated drug concentrations for 24h. […] The chemiluminescent signal was detected using the Enhanced Chemiluminescence Detection System (Amersham Biosciences) according to the manufacturer's instructions.

| SMILES | Effect on Hsp70-regulated anti-apoptotic protein complexes |
| --- | --- |
| CN1CCN(c2ncc(Sc3ccc(N)nc3)c(OCc3ccccc3)n2)CC1 [compound 32, 5-((4-(Benzyloxy)-2-(4-methylpiperazin-1-yl)pyrimidin-5-yl)thio)pyridin-2-amine] | effects reverted |

test system: MOLM-13 cells; experiment: Caspase cleavage assay (Caspase3, 7 activation); type: cell-based; conditions: Homo sapiens, 16 h treatment, caspase substrate Z-DEVD-R110, read-out: c* Concentration at which 50% of the maximum signal was achieved (caspase activation)
Outline: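 Cells (30,000/well, RPMI) treated 16 h with compound or DMSO in triplicate, then given buffer with 10 mM HEPES pH 7.5, 2 mM EDTA, 0.1% CHAPS and 25 μM Z-DEVD-R110. Fluorescence read once signal stabilized; results given as percentage increase in apoptotic cells versus DMSO-treated control.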

| SMILES | EC50 [nM] |
| --- | --- |
| CN1CCN(c2ncc(Sc3ccc(N)nc3)c(OCc3ccccc3)n2)CC1 [compound 32, 5-((4-(Benzyloxy)-2-(4-methylpiperazin-1-yl)pyrimidin-5-yl)thio)pyridin-2-amine] | 200 to 400 |
| CN(C)[C@@H]1CCN(c2ncc(Sc3ccc(C(N)=O)cc3)c(OCc3ccccc3)n2)C1 [compound 207, (R)-4-((4-(Benzyloxy)-2-(3-(dimethylamino)pyrrolidin-1-yl)pyrimidin-5-yl)thio)benzamide] | 400 to 1000 |
| CN1CCN(c2ncc(Sc3ccc(C(N)=O)cc3)c(OCc3ccccc3)n2)CC1 [compound 66, 4-((4-(Benzyloxy)-2-(4-methylpiperazin-1-yl)pyrimidin-5-yl)thio)benzamide] | 200 to 400 |
| CN1CCN(c2ncc(Sc3cccnc3N)c(OCc3ccccc3)n2)CC1 [compound 13, 3-((4-(Benzyloxy)-2-(4-methylpiperazin-1-yl)pyrimidin-5-yl)thio)pyridin-2-amine] | 400 to 1000 |
| COc1ccc(F)c(COc2nc(N3CCN(C)CC3)ncc2Sc2ccc(N)nc2)c1 [compound 157, 5-((4-((2-Fluoro-5-methoxybenzyl)oxy)-2-(4-methylpiperazin-1-yl)pyrimidin-5-yl)thio)pyridin-2-amine] | < 200 |
| COc1cccc(COc2nc(N3CCN(C)CC3)ncc2Sc2ccc(C(N)=O)c(Cl)c2)c1 [compound 108, 2-Chloro-4-((4-((3-methoxybenzyl)oxy)-2-(4-methylpiperazin-1-yl)pyrimidin-5-yl)thio)benzamide] | < 200 |
| C#CCN1CCN(c2ncc(Sc3ccc(C(N)=O)c(C(F)(F)F)c3)c(OCc3cccc(N(C)C)c3)n2)CC1 [compound 339, 4-((4-((3-(Dimethylamino)benzyl)oxy)-2-(4-(prop-2-yn-1-yl)piperazin-1-yl)pyrimidin-5-yl)thio)-2-(trifluoromethyl)benzamide] | 400 to 1000 |
| CN(C)C1CN(c2ncc(Sc3ccc(C(N)=O)c(C(F)(F)F)c3)c(OCc3cccc(Cl)c3)n2)C1 [compound 225, 4-((4-((3-Chlorobenzyl)oxy)-2-(3-(dimethylamino)azetidin-1-yl)pyrimidin-5-yl)thio)-2-(trifluoromethyl)benzamide] | 200 to 400 |
| CN1CCN(c2ncc(Sc3ccc(C(N)=O)c(C(F)(F)F)c3)c(OCc3ccc(F)c(Br)c3)n2)CC1 [compound 134, 4-((4-((3-Bromo-4-fluorobenzyl)oxy)-2-(4-methylpiperazin-1-yl)pyrimidin-5-yl)thio)-2-(trifluoromethyl)benzamide] | 200 to 400 |
| COc1cccc(COc2nc(N3CCN(Cc4ncco4)CC3)ncc2Sc2ccc(C(N)=O)cc2)c1 [compound 323, 4-((4-((3-Methoxybenzyl)oxy)-2-(4-(oxazol-2-ylmethyl)piperazin-1-yl)pyrimidin-5-yl)thio)benzamide] | < 200 |
| CN(C)c1cccc(COc2nc(N3CCN(CC4CC4)CC3)ncc2Sc2ccc(C(N)=O)c(C(F)(F)F)c2)c1 [compound 343, 4-((2-(4-(Cyclopropylmethyl)piperazin-1-yl)-4-((3-(dimethylamino)benzyl)oxy)pyrimidin-5-yl)thio)-2-(trifluoromethyl)benzamide] | ≥ 1200 |
| CN1CCN(c2ncc(Sc3ccc(C(=O)NCN4CCCC4)cc3)c(OCc3ccccc3)n2)CC1 [compound 92, 4-((4-(Benzyloxy)-2-(4-methylpiperazin-1-yl)pyrimidin-5-yl)thio)-N-(pyrrolidin-1-ylmethyl)benzamide] | 400 to 1000 |
| CN1CCN(c2ncc(Sc3ccc(C(N)=O)cc3)c(OCc3ccc(F)c(N(C)C)c3)n2)CC1 [100c, 4-((4-((3-(Dimethylamino)-4-fluorobenzyl)oxy)-2-(4-methylpiperazin-1-yl)pyrimidin-5-yl)thio)benzamide] | < 200 |
| CN1CCN(c2ncc(Sc3ccc(C(N)=O)cc3)c(OCc3ccoc3)n2)CC1 [100j, 4-((4-(Furan-3-ylmethoxy)-2-(4-methylpiperazin-1-yl)pyrimidin-5-yl)thio)benzamide] | 200 to 400 |
